How the values were obtained:
[1] = target: T1, human TYK2 (JH2domain-pseudokinase) (Homo sapiens, UniProt P29597); experiment: TYK2 JH2 domain binding assay (KINOMEscan)
T1 construct: host or cells: transiently transfected HEK293 cells; unpurified extract
Description: Binding constants for the compounds described herein against the JH2 domain were determined by the following protocol for a KINOMEscan® assay (DiscoveRx). A fusion protein of a partial length construct of human TYK2 (JH2domain-pseudokinase) (amino acids G556 to D888 based on reference sequence NP_003322.3) and the DNA binding domain of NFkB was expressed in transiently transfected HEK293 cells. From these HEK 293 cells, extracts were prepared in M-PER extraction buffer (Pierce) in the presence of Protease Inhibitor Cocktail Complete (Roche) and Phosphatase Inhibitor Cocktail Set II (Merck) per manufacturers' instructions. The TYK2 (JH2domain-pseudokinase) fusion protein was labeled with a chimeric double-stranded DNA tag containing the NFkB binding site fused to an amplicon for qPCR readout, which was added directly to the expression extract (the final concentration of DNA-tag in the binding reaction is 0.1 nM).
Streptavidin-coated magnetic beads (Dynal M280) were treated with a biotinylated small molecule ligand for 30 minutes at room temperature to generate affinity resins the binding assays. The liganded beads were blocked with excess biotin and washed with blocking buffer (SeaBlock (Pierce), 1% BSA, 0.05% Tween 20, 1 mM DTT) to remove unbound ligand and to reduce nonspecific binding.
The binding reaction was assembled by combining 16 μl of DNA-tagged kinase extract, 3.8 μl liganded affinity beads, and 0.18 μl test compound (PBS/0.05% Tween 20/10 mM DTT/0.1% BSA/2 μg/ml sonicated salmon sperm DNA)]. Extracts were used directly in binding assays without any enzyme purification steps at a ≥10,000-fold overall stock dilution (final DNA-tagged enzyme concentration <0.1 nM). Extracts were loaded with DNA-tag and diluted into the binding reaction in a two-step process. First extracts were diluted 1:100 in 1× binding buffer (PBS/0.05% Tween 20/10 mM DTT/0.1% BSA/2 μg/ml sonicated salmon sperm DNA) containing 10 nM DNA-tag. This dilution was allowed to equilibrate at room temperature for 15 minutes and then subsequently diluted 1:100 in 1× binding buffer. Test compounds were prepared as 111× stocks in 100% DMSO. Kds were determined using an 11-point 3-fold compound dilution series with three DMSO control points. All compounds for Kd measurements were distributed by acoustic transfer (non-contact dispensing) in 100% DMSO. The compounds were then diluted directly into the assays such that the final concentration of DMSO was 0.9%. All reactions were performed in polypropylene 384-well plates. Each was a final volume of 0.02 mL. Assays were incubated with shaking for 1 hour at room temperature. Then the beads were pelleted and washed with wash buffer (1×PBS, 0.05% Tween 20) to remove displaced kinase and test compound. The washed based were re-suspended in elution buffer (1×PBS, 0.05% Tween 20, 0.5 μM non-biotinylated affinity ligand) and incubated at room temperature with shaking for 30 minutes. The kinase concentration in the eluates was measured by qPCR. qPCR reactions were assembled by adding 2.5 μL of kinase eluate to 7.5 μL of qPCR master mix containing 0.15 μM amplicon primers and 0.15 μM amplicon probe. The qPCR protocol consisted of a 10 minute hot start at 95° C., followed by 35 cycles of 95° C. for 15 seconds, 60° C. for 1 minute.
Test compounds were prepared as 111× stocks in 100% DMSO. Kds were determined using an 11-point 3-fold compound dilution series with three DMSO control points. All compounds for Kd measurements were distributed by acoustic transfer (non-contact dispensing) in 100% DMSO. The compounds were then diluted directly into the assays such that the final concentration of DMSO was 0.9%. The Kds were determined using a compound top concentration of 30,000 nM. Kd measurements were performed in duplicate.
Binding constants (Kds) were calculated with a standard dose-response curve using the Hill equation: […]
The Hill Slope was set to −1. […]

[2] = target: T2, JAK1 JH2 (Homo sapiens, UniProt P23458); experiment: KINOMEscan binding, JAK1 JH2
T2 construct: JAK1 JH2
T2 sequence (P23458 583-855 limits assumed): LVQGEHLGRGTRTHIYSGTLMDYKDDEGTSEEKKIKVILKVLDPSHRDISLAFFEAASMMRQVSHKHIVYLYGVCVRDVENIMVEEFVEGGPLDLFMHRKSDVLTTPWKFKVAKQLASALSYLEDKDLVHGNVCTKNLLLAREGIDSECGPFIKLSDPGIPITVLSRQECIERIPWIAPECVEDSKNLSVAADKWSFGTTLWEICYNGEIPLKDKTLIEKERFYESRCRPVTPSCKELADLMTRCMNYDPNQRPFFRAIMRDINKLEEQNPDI

[3] = target: T3, TYK2 JH1 (Homo sapiens, UniProt P29597); experiment: KINOMEscan binding, TYK2 JH1
T3 construct: TYK2 JH1
T3 sequence (P29597 897-1176 limits assumed): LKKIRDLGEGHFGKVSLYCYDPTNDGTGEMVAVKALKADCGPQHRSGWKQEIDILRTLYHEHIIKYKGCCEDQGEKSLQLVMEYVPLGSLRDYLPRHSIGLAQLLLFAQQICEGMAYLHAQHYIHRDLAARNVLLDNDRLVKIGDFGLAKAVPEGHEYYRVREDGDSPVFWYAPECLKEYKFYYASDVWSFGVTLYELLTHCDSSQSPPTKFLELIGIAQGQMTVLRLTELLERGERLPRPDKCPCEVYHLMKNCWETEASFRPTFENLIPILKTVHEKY

[4] = target: T4, JAK1 JH1 (Homo sapiens, UniProt P23458); experiment: KINOMEscan binding, JAK1 JH1
T4 construct: JAK1 JH1
T4 sequence (P23458 875-1153 limits assumed): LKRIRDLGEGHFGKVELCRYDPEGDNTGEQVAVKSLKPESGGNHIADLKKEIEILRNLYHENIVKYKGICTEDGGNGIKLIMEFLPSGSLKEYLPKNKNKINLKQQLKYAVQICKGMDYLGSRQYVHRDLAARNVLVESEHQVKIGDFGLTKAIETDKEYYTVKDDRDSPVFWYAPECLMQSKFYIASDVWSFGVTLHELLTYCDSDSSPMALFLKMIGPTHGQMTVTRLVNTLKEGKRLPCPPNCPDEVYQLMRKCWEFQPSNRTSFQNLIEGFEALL

[5] = target: T5, JAK2 JH1 (Homo sapiens, UniProt O60674); experiment: KINOMEscan binding, JAK2 JH1
T5 construct: JAK2 JH1
T5 sequence (O60674 849-1124 limits assumed): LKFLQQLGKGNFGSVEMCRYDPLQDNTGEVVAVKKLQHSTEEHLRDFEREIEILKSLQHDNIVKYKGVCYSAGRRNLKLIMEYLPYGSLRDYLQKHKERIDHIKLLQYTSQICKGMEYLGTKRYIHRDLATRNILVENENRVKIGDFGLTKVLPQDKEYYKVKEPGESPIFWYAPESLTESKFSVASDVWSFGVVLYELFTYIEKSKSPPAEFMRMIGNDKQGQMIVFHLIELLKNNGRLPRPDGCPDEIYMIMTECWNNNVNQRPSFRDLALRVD

[6] = target: T6, JAK3 JH1 (Homo sapiens, UniProt P52333); experiment: KINOMEscan binding, JAK3 JH1
T6 construct: JAK3 JH1
T6 sequence (P52333 822-1111 limits assumed): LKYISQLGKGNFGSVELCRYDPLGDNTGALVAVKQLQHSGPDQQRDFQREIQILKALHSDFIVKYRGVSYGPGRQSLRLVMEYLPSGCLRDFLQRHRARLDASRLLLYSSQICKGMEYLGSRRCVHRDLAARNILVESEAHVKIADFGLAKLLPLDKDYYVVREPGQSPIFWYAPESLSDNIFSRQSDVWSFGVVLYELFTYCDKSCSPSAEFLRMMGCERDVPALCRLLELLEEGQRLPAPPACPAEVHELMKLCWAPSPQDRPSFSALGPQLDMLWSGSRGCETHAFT

[7] = target: T7, JAK2 JH2 (Homo sapiens, UniProt O60674); experiment: KINOMEscan binding, JAK2 JH2
T7 construct: JAK2 JH2
T7 sequence (O60674 545-809 limits assumed): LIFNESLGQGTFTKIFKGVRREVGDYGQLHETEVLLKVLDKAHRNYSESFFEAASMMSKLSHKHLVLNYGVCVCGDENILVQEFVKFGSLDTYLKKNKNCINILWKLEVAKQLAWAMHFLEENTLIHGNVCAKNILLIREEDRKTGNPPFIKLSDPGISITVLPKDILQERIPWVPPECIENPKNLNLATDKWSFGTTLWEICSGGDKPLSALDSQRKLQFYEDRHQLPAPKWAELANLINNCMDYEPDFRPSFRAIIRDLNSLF

[8] = test system: IFNa, PBMCs, p-STAT3; experiment: IFNa induced p-STAT3 in PBMCs; assay type: cell-based; conditions: PBMC; human PBMCs, IFNa stimulation
[9] = test system: IFNa, PBMCs, p-STAT5; experiment: INFα induced pSTAT5 in human PBMC; assay type: cell-based; conditions: 0.25 h, IFNa 5000 units/ml, 15 minutes
Description: Fresh Human PBMCs were resuspended in RPMI 1640 medium with 10% FBS. Cells were seeded in a round bottom 96-well plate at the concentration of 200,000 cells/well. A 10-point dilution series of test compound (top dose 10 uM, 1:5 dilution) was added to the well using the liquid dispenser (Tecan D300e) and incubated for 1 hour at 37 C. Then human INFα recombinant protein (R&D Systems) was added to the well at the final concentration of 5000 units/ml and incubated for 15 minutes at 37 C. Cell lysates were prepared and analyzed by Phospho STAT5 (Tyr693) Kit (Meso Scale Discovery) following manufacturer's protocol.
For calculation of the inhibition rate, the relative pSTAT5 signal of each well=pSTAT5 signal of each well−the average pSTAT5 signal of baseline.
The inhibition %=(the average pSTAT5 signal of INFα treatment wells−the relative of pSTAT5 signal in each compound containing well)/the average pSTAT5 signal of INFα treatment wells*100%
The curve was plotted as the inhibition % (y-axis) vs. compounds concentration (x-axis) and is fitted with log (inhibitor) vs. normalized response—Variable slope by GraphPad Prism7.0.

T1 sequence (P29597 556-888): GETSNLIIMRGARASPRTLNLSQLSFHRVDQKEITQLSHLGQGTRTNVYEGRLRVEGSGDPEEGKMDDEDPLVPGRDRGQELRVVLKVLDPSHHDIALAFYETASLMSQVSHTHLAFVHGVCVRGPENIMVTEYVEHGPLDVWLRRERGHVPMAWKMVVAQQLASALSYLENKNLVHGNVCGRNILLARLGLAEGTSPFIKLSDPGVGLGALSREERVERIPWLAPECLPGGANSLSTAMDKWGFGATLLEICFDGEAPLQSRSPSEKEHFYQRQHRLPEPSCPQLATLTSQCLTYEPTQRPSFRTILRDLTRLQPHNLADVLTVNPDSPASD

For “(1^3E,1^4E,6^1R,6^2R)-3^1-Methyl-1^7-(methylamino)-3^1H-5-oxa-2,7-diaza-1(5,3),3(4,6)-dipyrazolo[1,5-a]pyrimidina-6(1,2)-cyclopentanacyclooctaphan-8-one [Compound 2]”, the Kd [1] was under 0.01 µM, the Kd [2] was 1 to 10 µM and the Kd [3] was at least 30 µM.
In the case of `CNc1cc2nc3c(cnn13)C(=O)N1CC[C@H](C1)OCc1cc(c3nnn(C)c3c1)N2` [Compound 44], the Kd [1] is reported as under 0.01 µM, the Kd [2] is reported as 1 to 10 µM and the Kd [3] is reported as at least 30 µM.
In the case of `CNc1cc2nn3c(cnc13)Nc1cc(cc3c1ncn3C)COC1CCCC1NC2=O` (stereo not shown) [Compound 12, (6^1R,6^2R,E)-3^1-Methyl-1^8-(methylamino)-3^1H-5-oxa-2,7-diaza-1(6,3)-imidazo[1,2-b]pyridazina-3(4,6)-benzo[d]imidazola-6(1,2)-cyclopentanacyclooctaphan-8-one], the Kd [1] is reported as under 0.01 µM, the Kd [2] is reported as 10 to 30 µM and the Kd [3] is reported as at least 30 µM.
With “(1^3E,1^4E,3^4E,6^1R,6^2R)-3^2-Methyl-1^7-(methylamino)-3^2H-5-oxa-2,7-diaza-1(5,3),3(4,6)-dipyrazolo[1,5-a]pyrimidina-6(1,2)-cyclopentanacyclooctaphan-8-one [Compound 10]” the Kd [1] was under 0.01 µM, the Kd [2] was 1 to 10 µM and the Kd [3] was at least 30 µM.
`CNc1cc2nc3c(cnn13)C(=O)N[C@@H]1CCC[C@@H]1OCc1cc(c3nnn(C)c3c1)N2` [Compound 9] showed a Kd [1] of under 0.01 µM, a Kd [2] of 0.01 to 1 µM and a Kd [3] of at least 30 µM.
`CNc1cc2nc3c(cnn13)C(=O)N1CC[C@@H](C1)OCc1cc(c3nnn(C)c3c1)N2` [Compound 45] was tested, and the Kd [1] was under 0.01 µM, the Kd [2] was 1 to 10 µM and the Kd [3] was at least 30 µM.
Molecule `CNc1cc2nn3c(cnc13)C(=O)N[C@@H]1CCC[C@@H]1OCc1cc(c3c(c1)nnn3C)N2` [Compound 6, (6^1S,6^2R,E)-3^1-Methyl-1^8-(methylamino)-3^1H-5-oxa-2,7-diaza-1(6,3),3(7,5)-diimidazo[1,2-b]pyridazina-6(1,2)-cyclopentanacyclooctaphan-8-one] has a Kd [4] of at least 30 µM, a Kd [5] of at least 30 µM and a Kd [1] of under 0.01 µM. The Kd [6] was at least 30 µM, the Kd [2] was 0.01 to 1 µM and the Kd [7] was 1 to 10 µM. The Kd [3] was at least 30 µM.
For `CNc1cc2nn3c(cnc13)C(=O)N[C@@H]1CCC[C@H]1OCc1cc(c3nn(C)nc3c1)N2` [Compound 4, (1^5E,3^4E,6^1R,6^2R)-3^2-Methyl-1^8-(methylamino)-3^2H-5-oxa-2,7-diaza-1(6,3),3(4,6)-diimidazo[1,2-b]pyridazina-6(1,2)-cyclopentanacyclooctaphan-8-one], the IC50 [8] was under 0.1 µM, the Kd [4] was at least 30 µM and the Kd [5] was 1 to 10 µM. The Kd [1] was under 0.01 µM, the Kd [6] was 10 to 30 µM and the Kd [2] was 0.01 to 1 µM. The IC50 [9] was under 0.1 µM, the Kd [7] was 1 to 10 µM and the Kd [3] was 10 to 30 µM.
“(1^3E,1^4E,6^1S,6^2R)-3^1-Methyl-1^7-(methylamino)-3^1H-5-oxa-2,7-diaza-1(5,3),3(4,6)-dipyrazolo[1,5-a]pyrimidina-6(1,2)-cyclopentanacyclooctaphan-8-one [Compound 11]” was tested, and the Kd [1] was under 0.01 µM, the Kd [2] was 0.01 to 1 µM and the Kd [3] was at least 30 µM.
`CNc1cc2nn3c(cnc13)C(=O)N[C@@H]1CCC[C@H]1OCc1cc(c3nnn(C)c3c1)N2` [Compound 1] gave an IC50 [8] of under 0.1 µM, a Kd [4] of at least 30 µM and a Kd [5] of at least 30 µM. It also gave a Kd [1] of under 0.01 µM, a Kd [6] of 10 to 30 µM and an IC50 [9] of under 0.1 µM. It also gave a Kd [7] of 1 to 10 µM.
`CNc1cc2nn3c(cnc13)C(=O)N[C@@H]1CCC[C@H]1OCc1cc(c3c(c1)nnn3C)N2` [Compound 3] gave a Kd [4] of at least 30 µM, a Kd [5] of at least 30 µM and a Kd [1] of under 0.01 µM. It also gave a Kd [6] of at least 30 µM, a Kd [2] of 10 to 30 µM and a Kd [7] of at least 30 µM. It also gave a Kd [3] of at least 30 µM.
`CNc1cc2nn3c(cnc13)C(=O)N[C@@H]1CCC[C@H]1OCc1cc(c3nnn(C)c3c1)N2` [Compound 49] was tested, and the Kd [1] was under 0.01 µM, the Kd [2] was 1 to 10 µM and the Kd [3] was at least 30 µM.
Work on `[2H]C1([2H])O[C@H]2CCC[C@H]2NC(=O)c2cnc3c(NC)cc(nn23)Nc2cc1cc1c2nnn1C` [Compound 51] yielded a Kd [4] of at least 30 µM, a Kd [5] of at least 30 µM and a Kd [1] of under 0.01 µM. For the same molecule, the Kd [6] was 10 to 30 µM, the Kd [2] was 0.01 to 1 µM and the Kd [7] was 1 to 10 µM. The Kd [3] was at least 30 µM.
`CNc1cc2nn3c(cnc13)C(=O)N[C@@H]1CCC[C@@H]1OCc1cc(c3nnn(C)c3c1)N2` [Compound 5] showed a Kd [4] of at least 30 µM, a Kd [5] of at least 30 µM and a Kd [1] of under 0.01 µM. It also gave a Kd [6] of at least 30 µM, a Kd [2] of 0.01 to 1 µM and a Kd [7] of 1 to 10 µM. The Kd [3] was at least 30 µM.
Molecule `CNc1cc2nc3c(cnn13)C(=O)N[C@@H]1CCC[C@H]1OCc1cc(c3nn(C)nc3c1)N2` [Compound 8] has a Kd [1] of under 0.01 µM, a Kd [2] of 0.01 to 1 µM and a Kd [3] of 10 to 30 µM.
`[2H]C1([2H])O[C@@H]2CCC[C@H]2NC(=O)c2cnc3c(NC)cc(nn23)Nc2cc1cc1c2nnn1C` [Compound 50] was tested, and the Kd [4] was at least 30 µM, the Kd [5] was 10 to 30 µM and the Kd [1] was under 0.01 µM. It also gave a Kd [6] of 1 to 10 µM, a Kd [2] of 1 to 10 µM and a Kd [7] of 1 to 10 µM. It also gave a Kd [3] of at least 30 µM.
With `CNc1cc2nn3c(cnc13)C(=O)N[C@@H]1CCC[C@@H]1OCc1cc(c3nn(C)nc3c1)N2` [Compound 7] the Kd [4] was at least 30 µM, the Kd [5] was at least 30 µM and the Kd [1] was under 0.01 µM. The Kd [6] was at least 30 µM, the Kd [2] was 0.01 to 1 µM and the Kd [7] was 10 to 30 µM. It also gave a Kd [3] of at least 30 µM.

— patent publication US20250188093A1, “TYK2 INHIBITORS AND USES THEREOF” (Alumis Inc., priority 2022, published 2025)
